Measurements published in ChEMBL document CHEMBL4680307, “Potent leads based on CA-19L, an anti-HIV active HIV-1 capsid fragment” (Bioorg Med Chem, 2021).

How the values were obtained:
[1] = system: Human immunodeficiency virus 1; assay: Antiviral activity against HIV-1 NL(AD8) in human PM1/CCR5 cells assessed as virus induced cytopathic effect incubated for 5 days by MTT assay; assay type: functional, organism-based; conditions: Human immunodeficiency virus 1, NL(AD8), PM1/CCR5, 120 h
[2] = system: Human immunodeficiency virus 1; assay: Antiviral activity against HIV-1 NL4-3 in human MT-4 cells assessed as virus induced cytopathic effect incubated for 5 days by MTT assay; assay type: functional, organism-based; conditions: Human immunodeficiency virus 1, NL4-3, MT4, 120 h
[3] = Cytotoxicity against in human MT-4 after 5 days by MTT assay; assay type: cell-based, MT4; conditions: MT-4 cells, time 5 day
[4] = system: Human immunodeficiency virus 1; assay: Antiviral activity against HIV-1 NL(AD8) in human PM1/CCR5 cells assessed as virus induced cytopathic effect at 50 uM incubated for 5 days by MTT assay; assay type: functional; conditions: Human immunodeficiency virus 1, NL(AD8), PM1/CCR5, 120 h, time 5 day
[5] = system: Human immunodeficiency virus 1; assay: Antiviral activity against HIV-1 NL4-3 in human MT-4 cells assessed as virus induced cytopathic effect at 25 uM incubated for 5 days by MTT assay; assay type: functional; conditions: Human immunodeficiency virus 1, NL4-3, MT4, 120 h, time 5 day

SMILES | EC50 [1] [µM] | EC50 [2] [µM] | CC50 at 120 h [3] [µM] | inhibition at 50 µM [4] [%] | inhibition at 25 µM [5] [%]
c1cc(CN2CCCNCCNCCCNCC2)ccc1CN1CCCNCCNCCCNCC1 [PLERIXAFOR] | > 50 | 0.049 | > 50 |  | 
CC[C@H](C)[C@H](NC(=O)[C@@H](NC(=O)[C@H](CCCCN)NC(=O)[C@H](CO)NC(=O)[C@H](CC(=O)O)NC(=O)[C@@H]1CCCN1C(=O)[C@H](CC(N)=O)NC(=O)[C@H](C)NC(=O)[C@H](CC(N)=O)NC(=O)[C@H](CCC(N)=O)NC(=O)[C@@H](NC(=O)[C@H](CC(C)C)NC(=O)[C@H](CC(C)C)NC(=O)[C@@H](NC(=O)[C@H](CCC(=O)O)NC(=O)[C@@H](NC(=O)[C@H](CCSC)NC(=O)[C@H](Cc1c[nH]c2ccccc12)NC(=O)[C@H](CC(N)=O)NC(=O)[C@H](CCCCN)NC(=O)[C@@H](NC(=O)[C@H](CCC(=O)O)NC(=O)[C@H](CCC(N)=O)NC(=O)[C@H](CO)NC(C)=O)C(C)C)[C@@H](C)O)[C@@H](C)O)C(C)C)[C@@H](C)O)C(=O)N[C@@H](CC(C)C)C(=O)N[C@@H](CCCCN)C(=O)N[C@@H](C)C(=O)N[C@@H](CC(C)C)C(=O)NCC(=O)N1CCC[C@H]1C(=O)NCC(=O)N[C@@H](C)C(=O)N[C@H](C(=O)NCC(=O)N[C@@H](CSCC(=O)N[C@@H](CCCNC(=N)N)C(=O)N[C@@H](CCCNC(=N)N)C(=O)N[C@@H](CCCNC(=N)N)C(=O)N[C@@H](CCCNC(=N)N)C(=O)N[C@@H](CCCNC(=N)N)C(=O)N[C@@H](CCCNC(=N)N)C(=O)N[C@@H](CCCNC(=N)N)C(=O)N[C@@H](CCCNC(=N)N)C(N)=O)C(N)=O)[C@@H](C)O | 50 | 22 | > 50 |  | 
CSCC[C@H](NC(=O)[C@H](Cc1c[nH]c2ccccc12)NC(=O)[C@H](CC(N)=O)NC(=O)[C@H](CCCCN)NC(=O)[C@@H](NC(C)=O)C(C)C)C(=O)N[C@H](C(=O)N[C@@H](CCC(=O)O)C(=O)N[C@H](C(=O)N[C@@H](CC(C)C)C(=O)N[C@@H](CC(C)C)C(=O)N[C@H](C(=O)N[C@@H](CCC(N)=O)C(=O)N[C@@H](CC(N)=O)C(=O)N[C@@H](C)C(=O)N[C@@H](CC(N)=O)C(=O)NCC(=O)N[C@@H](CSCC(=O)N[C@@H](CCCNC(=N)N)C(=O)N[C@@H](CCCNC(=N)N)C(=O)N[C@@H](CCCNC(=N)N)C(=O)N[C@@H](CCCNC(=N)N)C(=O)N[C@@H](CCCNC(=N)N)C(=O)N[C@@H](CCCNC(=N)N)C(=O)N[C@@H](CCCNC(=N)N)C(=O)N[C@@H](CCCNC(=N)N)C(N)=O)C(N)=O)C(C)C)[C@@H](C)O)[C@@H](C)O | 50 | > 50 | > 50 | 40 | 27
CC[C@H](C)[C@H](NC(=O)[C@@H](NC(=O)[C@H](CCCCN)NC(=O)[C@H](CO)NC(=O)[C@H](CC(=O)O)NC(=O)[C@@H]1CCCN1C(=O)[C@H](CC(N)=O)NC(=O)[C@H](C)NC(=O)[C@H](CC(N)=O)NC(=O)[C@H](CCC(N)=O)NC(=O)[C@@H](NC(=O)[C@H](CC(C)C)NC(=O)[C@H](CC(C)C)NC(=O)[C@@H](NC(=O)[C@H](CCC(=O)O)NC(=O)[C@@H](NC(=O)[C@H](CCSC)NC(=O)[C@H](Cc1c[nH]c2ccccc12)NC(=O)[C@H](CC(N)=O)NC(=O)[C@H](CCCCN)NC(=O)[C@@H](NC(=O)[C@H](CCC(=O)O)NC(=O)[C@H](CCC(N)=O)NC(=O)[C@H](CO)NC(C)=O)C(C)C)[C@@H](C)O)[C@@H](C)O)C(C)C)[C@@H](C)O)C(=O)N[C@@H](CC(C)C)C(=O)N[C@@H](CCCCN)C(=O)N[C@@H](C)C(=O)N[C@@H](CC(C)C)C(=O)NCC(=O)N[C@@H](CSCC(=O)N[C@@H](CCCNC(=N)N)C(=O)N[C@@H](CCCNC(=N)N)C(=O)N[C@@H](CCCNC(=N)N)C(=O)N[C@@H](CCCNC(=N)N)C(=O)N[C@@H](CCCNC(=N)N)C(=O)N[C@@H](CCCNC(=N)N)C(=O)N[C@@H](CCCNC(=N)N)C(=O)N[C@@H](CCCNC(=N)N)C(N)=O)C(N)=O | 50 | > 25 | 21 |  | 39
Cc1cn([C@H]2C[C@H](N=[N+]=[N-])[C@@H](CO)O2)c(=O)[nH]c1=O [ZIDOVUDINE] | 3.3 | 0.094 | 74 |  | 
COC[C@@H](c1ccc(C(F)(F)F)cc1)N1CCN(C2(C)CCN(C(=O)c3c(C)ncnc3C)CC2)C[C@@H]1C [VICRIVIROC] | 0.21 | > 5 | > 5 |  | 
